ChEMBL document CHEMBL1201862, “PubChem BioAssay data set” (2004)
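Values below derive from 48-hour exposures of cells grown in 96-well plates, with endpoints linearly interpolated between the two concentrations bracketing the appropriate inhibition level. GI50: concentration for 50% inhibition of growth.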 Activity calls are given as the source filed them. Rule as the data show it: active = GI50 up to about 1.1 µM and inactive = higher.

Experiments:
Assay in all cases: inhibition of tumour cell growth, NCI panel, 48 h
A498 = system: A498
A549 = system: A549
DLD-1 = system: DLD-1
DMS-114 = system: DMS-114
DMS-273 = system: DMS-273
M19-MEL = system: M19-MEL
MCF7 = system: MCF7
NCI-H226 = system: NCI-H226
NCI/ADR-RES = system: NCI/ADR-RES
SNB-75 = system: SNB-75
CAKI-1 = system: CAKI-1
EKVX = system: EKVX
HOP-92 = system: HOP-92
786-0 = system: 786-0
ACHN = system: ACHN
M14 = system: M14
TK-10 = system: TK-10

SMILES | GI50 (A498) | GI50 (A549) | GI50 (DLD-1) | GI50 (DMS-114) | GI50 (DMS-273) | GI50 (M19-MEL) | GI50 (MCF7) | GI50 (NCI-H226) | GI50 (NCI/ADR-RES) | GI50 (SNB-75) | GI50 (CAKI-1) | GI50 (EKVX) | GI50 (HOP-92) | GI50 (786-0) | GI50 (ACHN) | GI50 (M14) | GI50 (TK-10)
CCOCCOc1ccc(OCCOCC)cc1 | 36.3 µM (inactive) | 37.6 µM (inactive) | 10.1 µM (inactive) | 4.51 µM (inactive) | 21.6 µM (inactive) | 26 µM (inactive) | 14 µM (inactive) | 31.9 µM (inactive) | 16.4 µM (inactive) | 18.8 µM (inactive) | – | – | – | – | – | – | –
CSCC(CO)NC(=O)/C=C/c1c(C)[nH]c(=O)[nH]c1=O (stereo unspecified) | > 875 µM (inactive) | > 875 µM (inactive) | 512 µM (inactive) | 164 µM (inactive) | > 838 µM (inactive) | 478 µM (inactive) | 40.3 µM (inactive) | 752 µM (inactive) | 621 µM (inactive) | 444 µM (inactive) | 91.8 µM (inactive) | 454 µM (inactive) | 318 µM (inactive) | – | – | – | –
CN(C)C(=O)C1CCC(=C2C(=O)OC(C)(C)OC2=O)N1C (stereo unspecified) | > 100 µM (inactive) | > 100 µM (inactive) | > 100 µM (inactive) | > 100 µM (inactive) | > 100 µM (inactive) | > 100 µM (inactive) | – | > 100 µM (inactive) | – | > 100 µM (inactive) | > 100 µM (inactive) | > 100 µM (inactive) | > 100 µM (inactive) | > 100 µM (inactive) | > 100 µM (inactive) | > 100 µM (inactive) | > 100 µM (inactive)
CC(C)=CC(=O)OC1C2C(C)=CC(O)C(O)C2(C)C2C3(O)OCC24C(CC(=O)OC14)C(C)C3O (stereo unspecified) | 1.51 µM (inactive) | 1.16 µM (inactive) | 0.0716 µM (active) | 0.0162 µM (active) | 0.0264 µM (active) | 0.034 µM (active) | 0.0269 µM (active) | 0.106 µM (active) | 17.5 µM (inactive) | 0.111 µM (active) | 2.93 µM (inactive) | 0.143 µM (active) | 0.0552 µM (active) | – | – | – | –
Nc1cc(S(=O)(=O)O)cc2cc(S(=O)(=O)O)c(/N=N/c3ccc(-c4ccc(/N=N/c5c(S(=O)(=O)O)cc6cc(S(=O)(=O)O)cc(N)c6c5O)cc4)cc3)c(O)c12 | > 100 µM (inactive) | > 100 µM (inactive) | > 100 µM (inactive) | > 100 µM (inactive) | > 100 µM (inactive) | > 100 µM (inactive) | > 100 µM (inactive) | > 100 µM (inactive) | > 100 µM (inactive) | > 100 µM (inactive) | – | > 100 µM (inactive) | > 71.9 µM (inactive) | – | – | – | –
N[C@@H](CSCSC[C@H](N)C(=O)O)C(=O)O | > 225 µM (inactive) | > 225 µM (inactive) | > 225 µM (inactive) | > 225 µM (inactive) | > 225 µM (inactive) | > 225 µM (inactive) | > 225 µM (inactive) | > 225 µM (inactive) | > 104 µM (inactive) | > 225 µM (inactive) | > 225 µM (inactive) | > 225 µM (inactive) | > 169 µM (inactive) | – | – | – | –
